Measured values from US8828987B2, “Pyridine amide derivatives as EP4 receptor antagonists” (Rottapharm Biotech S.R.L., priority 2010, dated 2014).
Where two headings read alike, the source gives them in different places.

What was measured:
[1] = target: T1, human EP4 receptor (Homo sapiens, UniProt P35408); experiment: [3H]-Prostaglandin E2 membrane binding assay (human EP4/HEK293 transfectant membranes); conditions: [3H]-PGE2 1 nM, hEP4/HEK293 membranes; Ki by Cheng-Prusoff; read-out: Binding pKi (converted)
T1 construct: expressed in transfected cells; membrane fraction used
Excerpt: (§1) Stable Expression of Human EP4 Receptors in the Human Embryonic Kidney (HEK293) Cell Line
(§2) The cDNA clone of human EP4 receptor (NM_000958.2) was obtained from Invitrogen™: Ultimate™ ORF Clone Collection—Clone ID IOH46525. The coding sequence was subcloned in expression vector pcDNA™6.2/V5-DEST by Gateway technology (Invitrogen™).
(§3) Human embryonic kidney cells (HEK-293) were stably transfected with expression vector for human EP4 receptor in according to the method described in FuGENE®6 Transfection Reagent's manual (Roche Applied Science®).
(§4) Preparation of Membrane Fraction:
(§5) The EP4 transfected cells were grown in Dulbecco's modified Eagle's medium containing 10% fetal bovine serum and 10 μg/ml Blasticidin S HCl (selection medium) at 37° C. in a humidified atmosphere of 5% CO2 in air.
(§6) For the membrane preparation, cells in flask were harvested by hypotonical/mechanical lysis with chilled (4° C.) TE buffer (5 mM TRIS, 5 mM etylenediamine tetra-acetic acid (EDTA), pH 7.4).
(§7) Cells were detached and lysed with 10 ml of hypotonic lysis buffer and by scraping. The cell lysate was vortexed for 30 sec and centrifuged at 40000×g at 4° C. for 22 min.
a) Membrane Binding Assay[3H]-Prostaglandin E2
The membrane pellet was resuspended in the same buffer (5 mM TRIS, 5 mM ethylenediamine tetra-acetic acid (EDTA), pH 7.4), and protein concentration was determined by Bradford method (Bio-Bad® assay).
This membrane preparation was stored at −80° C. freezer until use for binding assay.
([^3H]-PGE2) membranes binding assays toward hEP4 receptors (human EP4/HEK293 transfectant, see above) and hEP2 receptors (human EP2/HEK293 transfectant, purchased from PerkinElmer Inc) were performed in 10 mM MES-KOH buffer pH6, containing 10 mM MgCl2 and 1 mM CaCl2 for EP4 binding assay or 50 mM Tris-Cl, BSA 0.5% for EP2 binding assay (according to supplier indication).
Ten microgram of protein from membrane fractions were incubated in a total volume of 0.1 ml (EP4) or 0.2 ml (EP2) with 1 nM (EP4) or 3 nM (EP2) [^3H]-PGE2 (PerkinElmer Inc, 171 Ci/mmol). In both assays to determine the total binding or non specific binding, 1% DMSO or 1 μM prostaglandin E2 (EP4) or 100 μM (EP2) were added to reaction mixtures, respectively. Incubation was conducted in a polypropylene 96 multiwell for 90 min (EP4) or 60 min (EP2) at room temperature prior to separation of the bound and free radioligand by vacuum manifold rapid filtration on glass fiber filters (Unifilter GFB96, PerkinElmer Inc) pre-soaked in 0.3% polyethyleneimine. Filters were washed with ice cold buffer pH 7.4 (50 mM HEPES, NaCl 500 mM, BSA 0.1% for EP4 binding assay or 50 mM Tris-Cl for EP2 binding assays) and the residual [^3H]-PGE2 binding determined by solid scintillation counter (TopCount, PerkinElmer Inc).
The affinity (Ki) of each compound was calculated according to the Cheng-Prousoff equation: Ki=IC50/(1+([C]/Kd)). Results were expressed as pKi (−log 10 Ki (M)
Compounds of example 1 to 82 were tested according to method of example 83a in a final concentration range from 1 nM to 1 μM.

[2] = Pharmacokinetics in male Han Wistar rats, intravenous and oral; assay type: in vivo; conditions: rat; for AUC(0-inf) / AUC(0-t) / clearance / Vd / half-life / Cmax / Tmax / bioavailability: male, Han Wistar, plasma; for clearance: read-out: CLp* (converted); for Vd: read-out: Vss*; for half-life: read-out: t½* (converted); for bioavailability: po
Method: Determination of PK of the Invention Compounds
The pharmacokinetics of compounds E10, E16, E34, E38, E51, were studied in male Han Wistar rats. The rats were treated intravenously and orally (n=3 for each dose route) with a compounds formulated as solutions. The rats were fitted with a jugular cannula for serial sampling. A full profile was acquired for each rat. Plasma extracts were quantitatively analyzed using a specific and sensitive LC-MS/MS bioanalytical method. Inter-individual variations between the three rats in each group were limited (CV for pharmacokinetic parameters was below 50%).

[3] = target: T1, human EP4 receptor; experiment: cAMP assay (AlphaScreen) on human EP4 membrane of transfected cells, antagonism of PGE2; assay type: biochemical; conditions: HEK293 hEP4 cell membrane stimulated with PGE2 3 nM; read-out: functional IC50
Excerpt: as §1, §2, §3, §4, §5, §6, §7
b) cAMP Assay on Human EP4 Membrane of Transfected Cells.
The assay is based on the competition between endogenous cAMP and exogenously added biotinylated cAMP. The capture of cAMP is achieved by using a specific antibody conjugated to […] beads.
Cell membranes prepared as described above, were resuspended in 1 ml stimulation buffer (HBSS 1×+BSA 0.1%+IBMX 0.5 mM+HEPES 5 mM+MgCl2 10 mM+GTP 1 nM+GDP 10 μM+ATP 100 μM−pH 7.4). Cell membranes were dispensed into white 384-well microplates at final concentration of 1 μg/well and used for the determination of cAMP with the alphascreen cAMP functional assay (EnVision—PerkinElmer). Cell membrane/anti-cAMP Acceptor beads mix (5 μl) and a mixture of analysed compounds (dissolved in 100% DMSO to a final maximal concentration of 0.01% DMSO)/PGE2 (5 μl) were incubated at room temperature (22-23° C.) for 30 min in the dark. The Biotinylated-cAMP and donor beads (15 μl) were dispensed into each well to start the competition reaction. After 1 h incubation RT (22-23° C.) in the dark the plate was read using EnVision platform to determine the cAMP level (excitation: 680 nm; emission: 520,620 nm).
cAMP standard curve (concentration range from 1×10-6 to 1×10-11 M in. log intervals) with a negative control (no cAMP) a positive control:forskolin 10 μM
Antagonism studies were performed stimulating HEK293 cell membrane with PGE2 3 nM. The AlphaScreen signal is plotted as a function of log concentration of cAMP and functional IC50 is determined. IC50 value is calculated by linear regression.
Some compounds were tested according to method of example 83b.

[4] = 2 mg/kg, PO, 2.0 mg/kg, read-out: F %
[5] = 1 mg/kg, PO, 1.0 mg/kg, read-out: F %

T1 sequence (P35408 whole entry): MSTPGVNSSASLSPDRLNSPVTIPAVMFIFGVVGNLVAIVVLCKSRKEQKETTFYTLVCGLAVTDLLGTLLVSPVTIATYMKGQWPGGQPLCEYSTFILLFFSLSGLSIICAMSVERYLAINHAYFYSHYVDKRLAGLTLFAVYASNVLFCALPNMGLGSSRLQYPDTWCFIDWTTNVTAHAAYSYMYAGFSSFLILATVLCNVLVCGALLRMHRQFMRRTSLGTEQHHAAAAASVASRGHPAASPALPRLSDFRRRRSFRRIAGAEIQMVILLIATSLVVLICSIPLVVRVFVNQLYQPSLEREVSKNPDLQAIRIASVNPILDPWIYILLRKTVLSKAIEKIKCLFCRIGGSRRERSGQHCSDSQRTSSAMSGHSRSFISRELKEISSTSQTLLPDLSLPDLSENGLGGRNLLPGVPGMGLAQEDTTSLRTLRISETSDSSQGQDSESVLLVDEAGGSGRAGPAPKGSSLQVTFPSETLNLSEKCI

Work on O=C(O)c1ccc(C2(NC(=O)c3cc(Cl)cnc3N3CC(Oc4ccccc4)C3)CC2)cc1 [E 10, 4-(1-(5-chloro-2-(3-phenoxyazetidin-1-yl)nicotinamido)cyclopropyl)benzoic acid] yielded a Ki [1] of 15.8 nM, an AUC(0-inf) ([2]; IV, 2.0 mg/kg) of 3150 ng·h/mL and an AUC(0-t) ([2]; IV, 2.0 mg/kg) of 3090 ng·h/mL. It also gave a clearance ([2]; IV, 2.0 mg/kg) of 2.68 mL/min, a Vd ([2]; IV, 2.0 mg/kg) of 0.307 L and a half-life ([2]; IV, 2.0 mg/kg) of 3.96 h. It also gave an AUC(0-inf) ([2]; PO, 2.0 mg/kg) of 1820 ng·h/mL, an AUC(0-t) ([2]; PO, 2.0 mg/kg) of 1720 ng·h/mL and a Cmax ([2]; PO, 2.0 mg/kg) of 923 ng/mL. It also gave a Tmax ([2]; PO, 2.0 mg/kg) of 0.25 h, a half-life ([2]; PO, 2.0 mg/kg) of 4.85 h and a bioavailability [2, 4] of 56%. For the same compound, the Tlast ([2]; IV, 2.0 mg/kg) was 24 h, the Tlast ([2]; PO, 2.0 mg/kg) was 24 h and the IC50 [3] was 46 nM.

Work on Cc1cc(F)ccc1NC1CN(c2ncc(C(F)(F)F)cc2C(=O)NC2(c3ccc(C(=O)O)cc3)CC2)C1 [E 51, 4-(1-(2-(3-((4-fluoro-2-methylphenyl)amino)azetidin-1-yl)-5-(trifluoromethyl)nicotinamido)cyclopropyl)benzoic acid] yielded a Ki [1] of 6.31 nM, an AUC(0-inf) ([2]; IV, 1.0 mg/kg) of 389 ng·h/mL and an AUC(0-t) ([2]; IV, 1.0 mg/kg) of 385 ng·h/mL. The clearance ([2]; IV, 1.0 mg/kg) was 11.2 mL/min, the Vd ([2]; IV, 1.0 mg/kg) was 0.447 L and the half-life ([2]; IV, 1.0 mg/kg) was 1.12 h. For the same compound, the AUC(0-inf) ([2]; PO, 1.0 mg/kg) was 231 ng·h/mL, the AUC(0-t) ([2]; PO, 1.0 mg/kg) was 225 ng·h/mL and the Cmax ([2]; PO, 1.0 mg/kg) was 151 ng/mL. The Tmax ([2]; PO, 1.0 mg/kg) was 0.25 h, the half-life ([2]; PO, 1.0 mg/kg) was 1.14 h and the bioavailability [2, 5] was 58%. For the same compound, the Tlast ([2]; IV, 1.0 mg/kg) was 6 h, the Tlast ([2]; PO, 1.0 mg/kg) was 6 h and the IC50 [3] was 28 nM.

For O=C(O)c1ccc(C2(NC(=O)c3cc(C(F)(F)F)cnc3N3CC(Oc4cccc(F)c4)C3)CC2)cc1 [E 38, 4-(1-(2-(3-(3-fluorophenoxy)azetidin-1-yl)-5-(trifluoromethyl)nicotinamido)cyclopropyl)benzoic acid], the Ki [1] was 12.6 nM, the AUC(0-inf) ([2]; IV, 1.0 mg/kg) was 832 ng·h/mL and the AUC(0-t) ([2]; IV, 1.0 mg/kg) was 816 ng·h/mL. The clearance ([2]; IV, 1.0 mg/kg) was 5.68 mL/min, the Vd ([2]; IV, 1.0 mg/kg) was 1.07 L and the half-life ([2]; IV, 1.0 mg/kg) was 5.9 h. The AUC(0-inf) ([2]; PO, 1.0 mg/kg) was 598 ng·h/mL, the AUC(0-t) ([2]; PO, 1.0 mg/kg) was 551 ng·h/mL and the Cmax ([2]; PO, 1.0 mg/kg) was 374 ng/mL. For the same compound, the Tmax ([2]; PO, 1.0 mg/kg) was 0.25 h, the half-life ([2]; PO, 1.0 mg/kg) was 2.59 h and the bioavailability [2, 5] was 59%. The Tlast ([2]; IV, 1.0 mg/kg) was 24 h, the Tlast ([2]; PO, 1.0 mg/kg) was 6 h and the IC50 [3] was 19.3 nM.

For O=C(O)c1ccc(C2(NC(=O)c3cc(Cl)cnc3N3CC(Oc4cccc(F)c4)C3)CC2)cc1 [E 16, 4-(1-(5-chloro-2-(3-(3-fluorophenoxy)azetidin-1-yl)nicotinamido)cyclopropyl)benzoic acid], the Ki [1] was 3.16 nM, the AUC(0-inf) ([2]; IV, 2.0 mg/kg) was 3330 ng·h/mL and the AUC(0-t) ([2]; IV, 2.0 mg/kg) was 3290 ng·h/mL. The clearance ([2]; IV, 2.0 mg/kg) was 2.67 mL/min, the Vd ([2]; IV, 2.0 mg/kg) was 0.394 L and the half-life ([2]; IV, 2.0 mg/kg) was 5.62 h. The AUC(0-inf) ([2]; PO, 2.0 mg/kg) was 3000 ng·h/mL, the AUC(0-t) ([2]; PO, 2.0 mg/kg) was 2990 ng·h/mL and the Cmax ([2]; PO, 2.0 mg/kg) was 1800 ng/mL. It also gave a Tmax ([2]; PO, 2.0 mg/kg) of 0.25 h, a half-life ([2]; PO, 2.0 mg/kg) of 3.12 h and a bioavailability [2, 4] of 91%. For the same compound, the bioavailability ([2]; 2 mg/kg, after oral administration, read-out: absolute oral bioavailability F) was 90%, the Tlast ([2]; IV, 2.0 mg/kg) was 24 h and the Tlast ([2]; PO, 2.0 mg/kg) was 24 h. The IC50 [3] was 40 nM.

Compound O=C(O)c1ccc(C2(NC(=O)c3cc(Cl)cnc3N3CCC(Oc4cccc(F)c4)C3)CC2)cc1 (single isomer, unassigned) [E 71, 4-(1-(5-chloro-2-(3-(3-fluorophenoxy)pyrrolidin-1-yl)nicotinamido)cyclopropyl)benzoic acid] has a Ki [1] of 39.8 nM and an IC50 [3] of 110 nM.

O=C(O)c1ccc(C2(NC(=O)c3cc(Cl)cnc3N3CCC(Oc4cccc(F)c4)C3)CC2)cc1 (single isomer, unassigned) [E 69, 4-(1-(5-chloro-2-(3-(3-fluorophenoxy)pyrrolidin-1-yl)nicotinamido)cyclopropyl)benzoic acid] showed a Ki [1] of 50.1 nM and an IC50 [3] of 308 nM.

For O=C(O)c1ccc(C2(NC(=O)c3cc(Cl)cnc3N3CC(Oc4ccc(C(F)(F)F)cc4)C3)CC2)cc1 [E 13, 4-(1-(5-chloro-2-(3-(4-(trifluoromethyl)phenoxy)azetidin-1-yl)nicotinamido)cyclopropyl)benzoic acid], the Ki [1] was 25.1 nM and the IC50 [3] was 187 nM.

O=C(O)c1ccc(C2(NC(=O)c3cc(C(F)(F)F)cnc3N3CC(Oc4ccc(F)cc4F)C3)CC2)cc1 [E 44, 4-(1-(2-(3-(2,4-difluorophenoxy)azetidin-1-yl)-5-(trifluoromethyl)nicotinamido)cyclopropyl)benzoic acid] gave a Ki [1] of 10 nM and an IC50 [3] of 17.5 nM.

O=C(O)c1ccc(C2(NC(=O)c3cc(Cl)cnc3N3CC(Oc4ccc(F)c(C(F)(F)F)c4)C3)CC2)cc1 [E 17, 4-(1-(5-chloro-2-(3-(4-fluoro-3-(trifluoromethyl)phenoxy)azetidin-1-yl)nicotinamido)cyclopropyl)benzoic acid] showed a Ki [1] of 20 nM and an IC50 [3] of 82 nM.

With O=C(O)c1ccc(C2(NC(=O)c3cc(Cl)cnc3N3CC(Oc4ccc(F)cc4)C3)CC2)cc1 [E 15, 4-(1-(5-chloro-2-(3-(4-fluorophenoxy)azetidin-1-yl)nicotinamido)cyclopropyl)benzoic acid] the Ki [1] was 12.6 nM and the IC50 [3] was 70 nM.

In the case of O=C(O)c1ccc(C2(NC(=O)c3cc(Cl)cnc3N3CC(Oc4ccc(F)cc4F)C3)CC2)cc1 [E 19, 4-(1-(5-chloro-2-(3-(2,4-difluorophenoxy)azetidin-1-yl)nicotinamido)cyclopropyl)benzoic acid], the Ki [1] is reported as 50.1 nM and the IC50 [3] is reported as 87 nM.

Cc1cc(F)ccc1NC1CN(c2ncc(F)cc2C(=O)NC2(c3ccc(C(=O)O)cc3)CC2)C1 [E 56, 4-(1-(5-fluoro-2-(3-((4-fluoro-2-methylphenyl)amino)azetidin-1-yl)nicotinamido)cyclopropyl)benzoic acid] showed a Ki [1] of 10 nM and an IC50 [3] of 46 nM.
